According to the supplement of paper PMC10307832:

Key:
Test in all cases: relative viability (nuclei count vs DMSO), 5 days (fraction); higher = more cells survive
[1] = compound: CS(=O)(=O)CCNCc1ccc(-c2ccc3ncnc(Nc4ccc(OCc5cccc(F)c5)c(Cl)c4)c3c2)o1 [Lapatinib]
Summary of the method: (§1)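 On vehicle-anchored 1536-well plates, lung cancer cell lines held overnight at 37 °C were pinned with five library-drug doses (not always all listed) spaced by √10. With no medium change over 5 days, they were then fixed, permeabilised and Hoechst-stained in one step and imaged at 4×. MetaXpress counted nuclei, and viability is the median across plates of treated-well over vehicle-well nuclei. Acceptance needed control CV below 25% and at least one doubling.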

[2] = compound: CC1=NC=CC(=C1)C2=CC=C(C=C2)CC(=O)NC3=CC=C(C=C3)C4=CN=CC=C4 [Wnt-C59]
Summary of the method: as §1

[3] = compound: CS(=O)(=O)CCNCc1ccc(-c2ccc3ncnc(Nc4ccc(OCc5cccc(F)c5)c(Cl)c4)c3c2)o1 [Lapatinib] + CC(C)C[C@H](NC(=O)[C@H](Cc1ccccc1)NC(=O)c1cnccn1)B(O)O [Bortezomib] (partner 0.002 µM)
Summary of the method: (§2)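 Lung cancer cell lines were pin-tool dosed in 1536-well plates on the day after seeding, with either a lone drug or a fixed anchor-drug dose plus five library-drug doses (not always all listed) in √10 steps. Nuclei were counted on 4× images after 5 days. Relative viability is the ratio of treated-well to vehicle-well nuclei counts, with each value a median of duplicate plates.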

[4] = compound: CC1=NC=CC(=C1)C2=CC=C(C=C2)CC(=O)NC3=CC=C(C=C3)C4=CN=CC=C4 [Wnt-C59] + Cc1cc(Nc2cc(N3CCN(C)CC3)nc(Sc3ccc(NC(=O)C4CC4)cc3)n2)n[nH]1 [Tozasertib] (partner 0.1 µM)
Summary of the method: as §2

UMC-11
relative viability ([1]; 0.02 µM): 0.906
relative viability ([1]; 0.06325 µM): 0.935
relative viability ([1]; 0.2 µM): 1.02
relative viability ([1]; 0.6325 µM): 0.998
relative viability ([1]; 2 µM): 0.942
relative viability ([1]; 2 µM, anchor plate): 1.02
relative viability ([2]; 0.001 µM): 0.909
relative viability ([2]; 0.01 µM): 1.04
relative viability ([2]; 0.03162 µM): 1.08
relative viability ([2]; 0.1 µM): 1.03
relative viability ([3]; first compound 0.02 µM): 0.838
relative viability ([3]; first compound 0.06325 µM): 0.705
relative viability ([3]; first compound 0.2 µM): 0.852
relative viability ([3]; first compound 0.6325 µM): 0.798
relative viability ([3]; first compound 2 µM): 0.665
relative viability ([4]; first compound 0.001 µM): 0.214
relative viability ([4]; first compound 0.01 µM): 0.197
relative viability ([4]; first compound 0.03162 µM): 0.203
relative viability ([4]; first compound 0.1 µM): 0.226
